Experimental data taken from PMC6010102, “N-thioalkylcarbazoles derivatives as new anti-proliferative agents: synthesis, characterisation and molecular mechanism evaluation” (Journal of Enzyme Inhibition and Medicinal Chemistry, 2018).

Tests used:
[1] = molecular target: T1, hTopoI (Homo sapiens, UniProt P11387); assay: Human topoisomerase I relaxation assay; format: biochemical; conditions: direct in vitro assay, data not shown
T1 sequence (P11387 1-765): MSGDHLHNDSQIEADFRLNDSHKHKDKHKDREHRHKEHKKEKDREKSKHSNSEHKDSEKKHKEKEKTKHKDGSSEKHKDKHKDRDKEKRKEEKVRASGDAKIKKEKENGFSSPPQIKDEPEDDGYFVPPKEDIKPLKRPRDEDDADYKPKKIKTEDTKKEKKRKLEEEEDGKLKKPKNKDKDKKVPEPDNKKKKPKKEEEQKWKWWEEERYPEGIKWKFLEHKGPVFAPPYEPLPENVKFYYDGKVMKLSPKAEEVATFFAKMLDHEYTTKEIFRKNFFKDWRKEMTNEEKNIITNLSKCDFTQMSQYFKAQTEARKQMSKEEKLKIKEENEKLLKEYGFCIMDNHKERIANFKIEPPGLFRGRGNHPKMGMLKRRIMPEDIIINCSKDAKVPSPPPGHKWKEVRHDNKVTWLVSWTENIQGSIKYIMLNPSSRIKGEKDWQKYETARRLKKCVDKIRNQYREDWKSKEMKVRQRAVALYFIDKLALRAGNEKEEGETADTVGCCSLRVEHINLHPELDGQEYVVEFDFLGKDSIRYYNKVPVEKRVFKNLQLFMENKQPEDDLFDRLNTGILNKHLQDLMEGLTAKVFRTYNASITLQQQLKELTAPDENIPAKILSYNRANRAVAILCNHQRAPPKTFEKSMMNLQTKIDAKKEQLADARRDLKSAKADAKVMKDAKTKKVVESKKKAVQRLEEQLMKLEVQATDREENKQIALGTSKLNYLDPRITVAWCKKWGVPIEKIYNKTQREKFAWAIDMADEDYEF
Experimental: Human topoisomerase I relaxation assay: hTopoI relaxation assays were performed as reported in Iacopetta et al.[8].

[2] = test system: MCF-7 human breast cancer cells; assay: MTT cell viability, MCF-7; format: cell-based; conditions: MCF7, 72 h exposure, mean ± SD, read-out: Antiproliferative activity IC50, MCF-7
Description: (§1) The six cell lines used in this work were purchased from American Type Culture Collection (ATCC, Manassas, VA). MCF-7 human breast cancer cells, oestrogen receptor (ER) positives, were maintained in Dulbecco’s Modified Eagle’s Medium/Nutrient Mixture F-12 Ham (DMEM/F12), supplemented with 5% foetal bovine serum (FBS) and 100 U/ml penicillin/streptomycin, as previously described. MDA-MB-231, human breast cancer cells, oestrogen receptor (ER) negative, were maintained in Dulbecco’s Modified Eagle’s Medium/Nutrient Mixture F-12 Ham (DMEM/F12), supplemented with 5% Newborn Calf Serum (NCS) and 100 U/ml penicillin/streptomycin. HeLa human epithelial cervix carcinoma cells, oestrogen receptor (ER) negative, and ISHIKAWA human endometrial adenocarcinoma cell, oestrogen receptor positive, were maintained in minimum essential medium (MEM), supplemented with 10% FBS, 100 U/ml penicillin/streptomycin and 1% non-essential amino acid. 3T3-L1 cells line of murine fibroblasts of embryonic type, were maintained in DMEM, supplemented with 10% NCS and 100 U/ml penicillin/streptomycin. MCF-10A human mammary epithelial cells were cultured in DMEM/F12 medium, supplemented with 5% horse serum (HS) (Eurobio, Les Ullis, Cedex, France), 100 U/ml penicillin/streptomycin, […] hydrocortisone, 20 ng/ml hEGF (human epidermal growth factor), 10 μg/ml insulin and […] cholera enterotoxin (Sigma-Aldrich, Milano, Italy). Cells were maintained at 37 °C in a humidified atmosphere of 95% air and 5% CO2 and periodically screened for contamination.
(§2) MDA-MB-231, MCF-7, HeLa and ISHIKAWA cells were grown in complete medium and, before being treated, they were serum deprived for 24 h, to allow cell cycle synchronisation. Then cells were grown in phenol red-free medium supplemented with 1% DCC (destran-coated charcoal treated) FBS, then treated with increasing concentrations (0.1, 1, 10, 20, 40, 100 µM) of each compound for 72 h. Compounds were dissolved in dimethylsulphoxide (DMSO) (Sigma, St. Louis, MO) and diluted in each cell medium. Untreated cells, used as a control, were added with DMSO alone (final concentration 0.1%). Cell viability was assessed using the 3-[4,5-dimethylthiazol-2-yl]-2,5-diphenyltetrazolium bromide reagent (MTT), according to the protocol from manufacturer (Sigma-Aldrich, Milan, Italy), as previously described[37] ^, [38]. For each sample, the mean absorbance, measured at 570 nm, was expressed as a percentage of the control and plotted versus drug concentration to determine for each cell line the IC50 values (namely, drugs concentrations able to reduce cell viability of 50% with respect to the control), using GraphPad Prism 5 Software (GraphPad Inc., San Diego, CA)[39]. Each experiment was carried out in quadruplicate. Standard deviations (SD) were shown.

[3] = test system: caspase-9; assay: Caspase-Glo assay, caspase-9; format: cell-based, human; conditions: HeLa cells, concentration equal to IC50, 24 h
Experimental: Caspases-3/7, -8 and -9 activities were measured with the Caspase-Glo Assay, according to the guidelines of manufacturer (Caspase-Glo® 3/7, 8 and 9 Assay Systems, Promega Corporation, Madison, WI) as described in Iacopetta et al.[43].

[4] = test system: ISHIKAWA human endometrial adenocarcinoma cells; assay: MTT cell viability, ISHIKAWA; format: cell-based; conditions: 72 h exposure, mean ± SD, read-out: Antiproliferative activity IC50, ISHIKAWA
Description: as §1, §2

[5] = test system: MCF-10A human mammary epithelial cells; assay: MTT cell viability, MCF-10A; format: cell-based; conditions: non-tumoural cells, 72 h exposure, mean ± SD, read-out: Antiproliferative activity IC50, MCF-10a
Description: as §1, §2

[6] = test system: HeLa cells; assay: TUNEL assay in HeLa cells; format: cell-based, human; conditions: concentration equal to IC50, 24 h
Experimental: Apoptosis was detected by the TUNEL assay, according to the guidelines of the manufacturer (CF™488A TUNEL Assay Apoptosis Detection Kit, Biotium, Hayward, CA)[8]. Briefly, cells were grown on glass coverslips and, after treatment, they were washed trice with PBS, then methanol-fixed at −20 °C for 15 min. Fixed cells were washed trice with 0.01% (V/V) Triton X-100 in PBS and incubated with 100 µL of TUNEL equilibration buffer for 5 min. After its removal, 50 µL of TUNEL reaction mixture containing 1 µL of terminal deoxynucleotidyl transferase (TdT) were added to each sample and incubated in a dark and humidified chamber for 2 h at 37 °C. Samples were washed trice with ice-cold phosphate-buffered saline (PBS) containing 0.1% Triton X-100 and 5 mg/mL bovine serum albumin (BSA). 2-(4-Amidinophenyl)-6-indolecarbamidine dihydrochloride (DAPI) (0.2 µg/mL) counterstain was performed (10 min, 37 °C, dark and humidified conditions). After three additional washes with cold PBS, one drop of mounting solution was added, then they were observed and imaged under a fluorescence microscope (Leica DM 6000, Leica, Frankfurt am Main, Germany) (20× magnification) with excitation/emission wavelength maxima of 490 nm/515 nm (CF^TM488A) or 350 nm/460 nm (DAPI). Representative fields were shown. The experiments were repeated three times.

hTopoI inhibition [1]: no inhibition | IC50 [2]: 54.9 ± 1 µM | IC50 [4]: 15.7 ± 0.95 µM
Structure (SMILES): Cc1ccc(C)c2c1c1cc(Br)ccc1n2CCCCCCCS [5c, 7-(6-Bromo-1,4-dimethyl-9H-carbazol-9-yl)-heptane-1-thiol]
caspase-9 activity [3]: little, but significant, rise of caspase-9 activity | IC50 [5]: > 100 µM | apoptosis / DNA damage (TUNEL) [6]: induced DNA damage and led to cell death triggering the apoptotic mechanism
